# From patent US20060069132A1, “Azolecarboxamide herbicides” (priority 2004, published 2006)
# What was measured:
# redroot pigweed = assay: Test A pre-/postemergence herbicide test; assay type: in vivo, Amaranthus retroflexus
# Summary of the method: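 Pre: seeded sandy loam, directed soil spray, compound in non-phytotoxic solvent + surfactant. Post: 1–2-leaf plants (2–10 cm), sprayed to runoff. Greenhouse ~10 d; visual injury vs untreated, 0–100 scale.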
# barnyardgrass = assay: Test B pre-/postemergence herbicide test; assay type: in vivo, Echinochloa crus-galli; conditions: for Plant response rating, Barnyardgrass / Barnyardgrass plant response rating (0 to 100 scale) / Plant response rating (0 to 100 scale), Barnyardgrass: preemergence
# Summary of the method: (§1)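 Evaluation is visual, comparing treated with control plants on a scale where 0 means no effect and 100 means full control. Treatments were preemergence, or postemergence on seedlings 2–18 cm tall, and held 13–15 days in the greenhouse.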
# cocklebur = assay: Test B pre-/postemergence herbicide test; assay type: in vivo, Xanthium strumarium; conditions: for Plant response rating, Cocklebur / Cocklebur plant response rating (0 to 100 scale) / Plant response rating (0 to 100 scale), Cocklebur: preemergence
# Summary of the method: as §1
# bermudagrass = assay: Test C pre-/postemergence herbicide test; assay type: in vivo, Cynodon dactylon; conditions: preemergence
# Text: (§2) Seeds of plant species selected from bermudagrass (Cynodon dactylon (L.) Pers.), Surinam grass (Urochloa decumbens (Staph) R. D. Webster, previously named Brachiaria decumbens Stapf), cocklebur (Xanthium strumarium L.), corn (Zea mays L.), large crabgrass (Digitaria sanguinalis (L.) Scop.), woolly cupgrass (Eriochloa villosa (Thunb.) Kunth), giant foxtail (Setaria faberi Herrm.), goosegrass (Eleusine indica (L.) Gaertn.), johnsongrass (Sorghum halepense (L.) Pers.), kochia (Kochia scoparia (L.) Schrad.), lambsquarters (Chenopodium album L.), morningglory (Ipomoea coccinea L.), eastern black nightshade (Solanum ptycanthum Dunal), yellow nutsedge (Cyperus esculentus L.), pigweed (Amaranthus retroflexus L.), common ragweed (Ambrosia elatior L.), soybean (Glycine max (L.) Merr.), common (oilseed) sunflower (Helianthus annuus L.) and velvetleaf (Abutilon theophrasti Medik.) were planted and treated preemergence with test chemicals formulated in a non-phytotoxic solvent mixture which included a surfactant.
# (§3) At the same time, plants selected from these crop and weed species and also winter barley (Hordeum vulgare L.), blackgrass (Alopecurus myosuroides Huds.), canarygrass (Phalaris minor Retz.), chickweed (Stellaria media (L.) Vill.), downy bromegrass (Bromus tectorum L.), green foxtail (Setaria viridis (L.) Beauv.), Italian ryegrass (Lolium multiflorum Lam.), wheat (Triticum aestivum L.), wild oat (Avenafatua L.) and windgrass (Apera spica-venti (L.) Beauv.) were treated with postemergence applications of some of the test chemicals formulated in the same manner. Plants ranged in height from 2 to 18 cm (1- to 4-leaf stage) for postemergence treatments. Plant species in the flooded paddy test consisted of rice (Oryza sativa), smallflower umbrella sedge (Cyperus difformis L.), ducksalad (Heteranthera limosa (Sw.) Willd.) and barnyardgrass (Echinochloa crus-galli (L.) Beauv.) grown to the 2-leaf stage for testing. Treated plants and controls were maintained in a greenhouse for 12 to 14 days, after which time all species were compared to controls and visually evaluated. Plant response ratings, summarized in Table C, are based on a scale of 0 to 100 where 0 is no effect and 100 is complete control. A dash (-) response means no test result.
# morningglory = assay: Test C pre-/postemergence herbicide test; assay type: in vivo, Ipomoea coccinea; design: key to Plant response rating, Morningglory: 0 = no effect, 100 = complete control; conditions: preemergence
# Text: as §2, §3
# pigweed = assay: Test C pre-/postemergence herbicide test; assay type: in vivo, Amaranthus retroflexus; conditions: preemergence
# Text: as §2, §3
# [1] = Postemergence, 500 g ai/ha, 0 to 100 scale, 0 no effect, 100 complete control
# [2] = Postemergence, 2000 g ai/ha, 0 to 100 scale, 0 no effect, 100 complete control
# [3] = Preemergence, 2000 g ai/ha, visual rating, 0 to 100 scale (0 no effect, 100 complete control)
# [4] = preemergence, 500 g ai/ha, visual injury, 0 to 100 scale (0 no effect, 100 complete control)
# [5] = 500 g ai/ha, visual rating 0-100, 0 no effect, 100 complete control
# [6] = postemergence, 125 g ai/ha, visual rating, scale 0 (no effect) to 100 (complete control)
# [7] = postemergence, 500 g ai/ha, visual rating, scale 0 (no effect) to 100 (complete control)
# [8] = 125 g ai/ha, 0 to 100 scale, 0 is no effect, 100 is complete control
# [9] = 125 g ai/ha, 0 = no effect, 100 = complete control
# [10] = 500 g ai/ha, visual rating, 0 = no effect, 100 = complete control
# [11] = postemergence, 500 g ai/ha, scale 0 to 100, 0 is no effect, 100 is complete control
# [12] = 125 g ai/ha, visual rating, scale 0 (no effect) to 100 (complete control), postemergence
# [13] = 125 g ai/ha, 0 is no effect, 100 is complete control
# [14] = 500 g ai/ha, scale 0 to 100 (0 no effect, 100 complete control), visual, 12 to 14 days
# [15] = Postemergence, 500 g ai/ha, scale 0 (no effect) to 100 (complete control)
SMILES,Pigweed plant response rating (redroot pigweed; [1]),"Plant response rating, Pigweed (redroot pigweed; [2])",Pigweed plant response rating (redroot pigweed; [3]),Pigweed plant response rating (redroot pigweed; [4]),Barnyardgrass plant response rating (barnyardgrass; [6]),Barnyardgrass plant response rating (barnyardgrass; [7]),Cocklebur plant response rating (cocklebur; [6]),Cocklebur plant response rating (cocklebur; [7]),Barnyardgrass plant response rating (0 to 100 scale) (barnyardgrass; [9]),Cocklebur plant response rating (0 to 100 scale) (cocklebur; [9]),"Plant response rating, Barnyardgrass (barnyardgrass; [10])","Plant response rating, Cocklebur (cocklebur; [10])",Barnyardgrass plant response rating (barnyardgrass; [11]),Cocklebur plant response rating (cocklebur; [11]),Barnyardgrass plant response rating (barnyardgrass; [12]),Cocklebur plant response rating (cocklebur; [12]),"Plant response rating (0 to 100 scale), Barnyardgrass (barnyardgrass; [13])",further results
CCn1nc(C(C)(C)C)cc1C(=O)Nc1cccc(OCCCF)c1 [Compound 138],60,100,95,80,10,20,40,90,,,,,,,,,,"Plant response rating, Barnyardgrass (barnyardgrass; [5]): 70; Plant response rating, Barnyardgrass (barnyardgrass; [8]): 10; Plant response rating, Cocklebur (cocklebur; [5]): 10; Plant response rating, Cocklebur (cocklebur; [8]): 0"
CCc1nc(C(C)(C)C)sc1C(=O)Nc1cccc(C(=O)NCCF)c1 [Compound 209],40,50,100,75,10,20,30,40,50,10,,,,,,,,"Plant response rating, Barnyardgrass (barnyardgrass; [5]): 90; Plant response rating, Cocklebur (cocklebur; [5]): 30"
CCc1nc(C(C)(C)C)sc1C(=O)Nc1cccc(C(=O)NC(C)(C)C)n1 [Compound 216],30,55,70,0,0,10,0,70,0,0,40,0,,,,,,
CCNC(=O)c1ccc(F)c(NC(=O)c2cc(C(C)(C)C)nn2CC)n1 [Compound 278],60,70,95,85,0,,10,,30,0,80,0,10,30,,,,
CCn1nc(C(C)(C)C)cc1C(=O)Nc1nc(C(=O)N2CC=CC2)ccc1F [Compound 281],70,70,95,90,0,,20,,20,0,90,0,0,20,,,,
C#CCNC(=O)c1cc(NC(=O)c2cc(C(C)(C)C)nn2CC)ccn1 [Compound 283],80,100,90,60,0,,0,,0,0,10,0,0,0,,,,
CCn1nc(C(C)(C)C)cc1C(=O)Nc1cncc(C(=O)N2CC=CC2)n1 [Compound 290],30,60,95,10,,,,,0,0,80,0,0,10,0,0,,
C#CCNC(=O)c1cccc(NC(=O)c2sc(C(C)(C)C)nc2CC)c1 [Compound 319],40,40,100,100,,,,,,,80,10,20,40,0,20,50,"Plant response rating (0 to 100 scale), Cocklebur (cocklebur; [13]): 0"
CCc1nn(C(C)C)nc1C(=O)Nc1cccc(C(=O)N2CCCCC2)c1 [Compound 385],,,,,,,,,,,,,10,50,0,20,80,"Plant response rating (0 to 100 scale), Cocklebur (cocklebur; [13]): 0; Plant response rating, Bermudagrass (bermudagrass; 62 g ai/ha, scale 0 to 100, 0 no effect, 100 complete control): 55; Plant response rating (0 = no effect, 100 = complete control), Bermudagrass (bermudagrass; 125 g ai/ha): 85; Plant response rating, Bermudagrass (bermudagrass; 250 g ai/ha, scale 0-100): 100; Plant response rating, Bermudagrass (bermudagrass; [14]): 100; Plant response rating, Morningglory (morningglory; 62 g ai/ha, scale 0 to 100): 15; Plant response rating, Morningglory (morningglory; 250 g ai/ha, scale 0-100): 65; Plant response rating, Morningglory (morningglory; [14]): 100; Plant response rating, Pigweed (pigweed; 62 g ai/ha, scale 0 to 100): 80; Plant response rating (0 = no effect, 100 = complete control), Pigweed (pigweed; 125 g ai/ha): 100; Plant response rating, Pigweed (pigweed; 250 g ai/ha, scale 0-100): 100; Plant response rating, Pigweed (pigweed; [14]): 100"
CCN(C(C)=O)C(=O)c1ccc(F)c(NC(=O)c2cc(C(C)(C)C)nn2CC)c1 [Compound 413],60,85,60,45,,,,,,,,,,,,,40,"Barnyardgrass plant response rating (barnyardgrass; Postemergence, 125 g ai/ha, scale 0 (no effect) to 100 (complete control)): 10; Barnyardgrass plant response rating (barnyardgrass; [15]): 20; Cocklebur plant response rating (cocklebur; [15]): 90; Cocklebur plant response rating (cocklebur; postemergence, 125 g ai/ha, scale 0 to 100): 30"
